Results on two compounds are retold here after patent US6649654B1, “Methods for identifying and using IKK inhibitors” (The Regents of the University of California, priority 1999, dated 2003).

One experiment has as its target p38 (Homo sapiens, UniProt Q16539). Put plainly: In vitro p38 kinase activity. The class given is biochemical. The note with it: in vitro incubation with up to 60 μM. Details: Endogenous IKK, HA-tagged IKKα, endogenous JNK1, and p38 activities were determined; endogenous in cells. On the procedure: Cell lysates were incubated with anti-IKKα (Pharmingen), anti-HA (12CA5; Pharmingen), anti-JNK1 (333.8; Pharmingen), or anti-p38 (New England Biolabs) for 2 hours. Then, 15 μl protein A-Sepharose (Sigma) were added and the mixture was allowed to incubate for 1 hour. After extensive washing, kinase assays were performed as known in the art (See e.g., DiDonato et al., Nature 388:548-554 [1997]). Endogenous IKK, HA-tagged IKKα, endogenous JNK1, and p38 activities were determined with GST-1κBα(1-54), GST-c-Jun(1-79), and GST-ATF2 as substrates.
Endogenous IKK was immunoprecipitated from TNFα-stimulated HeLa cells and the kinase activity determined in the presence of different concentrations of PGA1 (the results of which are shown in FIG. 2B) or 15dPGJ2 (the results of which are shown in FIG. 2C).

For experiment [1], the system named is inducible nitric oxide synthase (iNOS). The note with it: activated monocytes; cited from earlier work.
Experiment [2] addresses T1, peroxisome proliferator-activated receptor-γ (PPAR-γ) (Homo sapiens, UniProt P37231).
T1 sequence (P37231 1-505): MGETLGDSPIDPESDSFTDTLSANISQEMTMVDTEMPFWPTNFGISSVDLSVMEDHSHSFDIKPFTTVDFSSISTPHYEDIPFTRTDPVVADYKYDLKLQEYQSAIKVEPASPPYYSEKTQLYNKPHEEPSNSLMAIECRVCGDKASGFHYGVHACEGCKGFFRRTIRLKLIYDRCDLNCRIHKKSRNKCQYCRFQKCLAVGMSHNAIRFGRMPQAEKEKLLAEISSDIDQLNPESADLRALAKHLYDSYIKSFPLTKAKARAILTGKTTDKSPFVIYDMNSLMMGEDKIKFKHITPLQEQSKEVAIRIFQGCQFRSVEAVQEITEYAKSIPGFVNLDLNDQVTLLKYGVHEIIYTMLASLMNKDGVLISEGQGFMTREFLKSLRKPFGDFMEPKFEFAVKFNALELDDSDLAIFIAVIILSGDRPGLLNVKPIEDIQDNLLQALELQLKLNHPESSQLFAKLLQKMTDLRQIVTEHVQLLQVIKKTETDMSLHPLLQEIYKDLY
The note with it: Ricote et al.; Jiang et al.; cited from earlier work.

In the next experiment the target is JNK (Homo sapiens, UniProt P45983). Put plainly: JNK activity in HeLa cells. Format: cell-based. Details: endogenous in cells. The note with it: even in the absence of TNFα. On the procedure: (§1) Cells used in the experiments described herein were cultured in either RPMI 1640 (Jurkat cells) or DMEM (HeLa and COS cells), supplemented with 10% FBS and antibiotics. Cells were stimulated with either 25 ng/ml TPA, 20 ng/ml recombinant TNFα, or 10 ng/ml interleukin 1β (Sigma). PGA1, 15dPGJ2, T×B2, LTB4, AA and other PGs (Cayman) dissolved in ethanol were used as well, as known in the art (See e.g., Rossi et al., 94:746-750 [1997]). Controls received equal amounts of ethanol. Transfections were performed using Lipofectamine Plus (GIBCO) for HeLa and COS cells and DEAE-dextran (Sigma) for Jurkat cells. Xpress-tagged NIK, Xpress-tagged MEKK1, HA-tagged IKKα, and HA-tagged IKKβ were also used (See e.g., Zandi et al., Science 281:1360-1363 [1998]; and Delhase et al., Science 284:309-313 [1999]). COX2 and cPLA2 expression vectors were obtained from Dr. L. Feng (See also, Hirose et al., J. Am. Soc. Nephrol., 9:408-416 [1998]). PGD synthase was cloned from HT29 colon carcinoma cell line cDNA by PCR and subcloned into a pCDNA3 vector. […]
(§2) Cell lysates were incubated with anti-IKKα (Pharmingen), anti-HA (12CA5; Pharmingen), anti-JNK1 (333.8; Pharmingen), or anti-p38 (New England Biolabs) for 2 hours. […] Endogenous IKK, HA-tagged IKKα, endogenous JNK1, and p38 activities were determined with GST-1κBα(1-54), GST-c-Jun(1-79), and GST-ATF2 as substrates.

Another experiment has as its system IKK. Put plainly: MEKK1-induced IKK activity in COS cells. Format: cell-based. Particulars: data not shown. As to the method: as §1, §2

JNK, sequence (P45983 whole entry): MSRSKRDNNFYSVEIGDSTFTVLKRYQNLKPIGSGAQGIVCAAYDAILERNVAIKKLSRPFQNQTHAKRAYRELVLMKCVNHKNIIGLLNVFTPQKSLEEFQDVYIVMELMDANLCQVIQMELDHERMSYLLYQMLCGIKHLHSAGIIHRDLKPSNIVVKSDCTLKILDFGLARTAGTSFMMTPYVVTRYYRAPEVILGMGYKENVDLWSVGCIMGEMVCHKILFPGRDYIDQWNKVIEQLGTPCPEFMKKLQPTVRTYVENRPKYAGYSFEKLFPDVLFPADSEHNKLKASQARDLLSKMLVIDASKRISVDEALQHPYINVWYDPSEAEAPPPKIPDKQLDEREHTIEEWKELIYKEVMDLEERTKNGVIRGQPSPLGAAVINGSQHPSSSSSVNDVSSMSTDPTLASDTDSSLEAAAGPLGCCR
p38, sequence (Q16539 whole entry): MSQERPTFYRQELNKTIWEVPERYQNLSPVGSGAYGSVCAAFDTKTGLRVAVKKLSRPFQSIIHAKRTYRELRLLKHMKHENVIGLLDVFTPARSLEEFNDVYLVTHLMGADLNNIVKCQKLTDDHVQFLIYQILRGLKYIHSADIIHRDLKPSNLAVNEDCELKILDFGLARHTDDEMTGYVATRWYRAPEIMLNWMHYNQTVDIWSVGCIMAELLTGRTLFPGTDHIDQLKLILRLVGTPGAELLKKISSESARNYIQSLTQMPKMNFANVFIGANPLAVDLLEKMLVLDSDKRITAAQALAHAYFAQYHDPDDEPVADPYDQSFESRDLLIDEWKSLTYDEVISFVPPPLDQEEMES

Turning to `CCCCC/C=C/C=C1/C(=O)C=C[C@@H]1C/C=C\CCCC(=O)O` [15dPGJ2, 15-deoxy-Δ^12-14-PGJ2], the “inhibition of p38 activity in vitro” value against p38 was “No significant inhibition”. The “production of inducible nitric oxide synthase (iNOS)” value in experiment [1] is listed as “inhibits”. Also, the “activation of PPAR-γ” value in experiment [2] is listed as “activate”. For the same compound, at JNK, the “effect on JNK activity” value was “stimulated”.
As for `CCCCC[C@H](O)/C=C/[C@H]1C=CC(=O)C1CCCCCCC(=O)O` (some centres unmarked) [PGA1, prostaglandin A1], the “effect on MEKK1-induced IKK activity” value in the experiment on IKK was “inhibited”.
